The record followed here is patent US12667584B2, “Adenosine analog and its use in regulating the circadian clock” (NATIONAL INSTITUTE OF BIOLOGICAL SCIENCES, BEIJING, priority 2017, dated 2026).

The subject of assay [1] is SCN culture slice. The assay can be described thus: Ex vivo SCN slice culture from Per2::LUC mice, lumicycle. The class given is cell-based, mouse. The text has this: Tissue culture, drug treatment and Real-Time Monitoring of Circadian Oscillations: 8 week-old male mPer2 Luciferase knockin mice were Sacrificed cervical dislocation. Then wipe the skin and neck with cotton containing 70% ethanol in a sterile hood. For SCN slice culture, firstly remove the eye balls from the head with scissors, decapitate and cut the skin. Then open the skull, remove all bone until the olfactory bulbs can be seen, cut the optic nerve between the olfactory bulbs and the hemispheres, and finally harvest the whole brain into ice cold HBSS. Trim the brain in HBSS by removing the cerebellum and olfactory bulbs. Attach the brain to a sample tray by glue with the rostral tip upwards and ventral surface closest to the cutting blade, then immediately fill the tray with ice cold HBSS and set the tray to the vibratome. Set the vibratome frequency at the maximum and the speed to the medium. To reach the SCN area quickly, the start cutting off thicker sections should be 500-800 μm. Reduce the sections thicker to 100 μm when the optic chiasm becomes wider. When the two SCN nuclei start to appear, collect the slice with transfer pipettes and check slices under dissecting microscope. […] Data was extract and analyzed with LumiCycle Analysis software. […]

Assay [2] deals with kidney clocks. The assay can be described thus: Phase shift of kidney clock. The format is cell-based.
For assay [3], the system named is PER2 locus. The assay can be described thus: ChIP-qPCR analysis for the PER2 locus. The format is cell-based. On the procedure: Human and mouse circadian oscillators are driven by interlocked transcriptional and translational feedback loop. Bmal1 and Clock are transcriptional factors and function as positive arm to active negative arm genes transcription, including Per and Cry. Per and Cry are transcriptional repressor and feedback repress Bmal1/Clock's transcription activity thereby inhibit its own transcription. […] We also confirmed this by ChIP-qPCR experiments. Cordycepin treatment 30 min immediately release Cry1/2 and Ruvbl2 binding at Per2 gene promoter.

The test system of assay [4] is E-box genes. The experiment in a line: Nascent pre-mRNA sequencing (nascent-seq) of U2OS cells. The format is cell-based, human. The text has this:
Manipulating DRB's well characterized target CDK9 protein with AID degron mimics the phase shift curve of DRB in Per2-dLuc cells. […] Using nascent seq experiment, we found DRB treatment repress majority genes expression, but exclusively activates E-box containing gene both in vitro (FIG. 4).
(red color). […] Thus, perhaps the partial inhibition of CDK9 stimulates, rather than represses, the transcription of E-box genes. Right napel is UCSC genome browser views of E-box containing (NR1D1 and DBP) or non-E-box containing (BMAL1 and CRY1) clock genes

In assay [5] the target is T1, CDK9 (Homo sapiens, UniProt P50750).
T1 construct: Every 10^8 unsynchronized U2OS cells were collected, homogenized into 2 ml lysis buffer; endogenous in cells; host or cells: U2OS
The assay can be described thus: Biotinylated compounds pull-down in U2OS cell lysate, CDK9. The format is binding. Here is the method:
(§1) Biotinylated Compounds Pull-down, SPR analysis and Immunoprecipitation: The interaction between biotinylated compounds and their target proteins were proceeded as follow. Every 10^8 unsynchronized U2OS cells were collected, homogenized into 2 ml lysis buffer (25 mM MOPS pH7.2, 15 mM EGTA, 15 mM MgCl2, 1 mM DTT, 60 mM β-glycerophosphate, 1 mM Na3VO4, 1 mM NaF, 1 mM phenyl phosphate, Complete Protease Inhibitor Cocktail), and sonicated 6 times for 30 s at 4° C. with a Diagenode bioruptor. After sonication, NP-40 (final 0.5%) was added, incubated 15 min on ice, centrifuged at full speed for 20 min at 4° C. The resultant supernatant was firstly incubated with Pentostatin (final concentration at 5 μg/ml) for 2 h at 4° C. with rotation, and then split into 4 groups. 200 pmol cordycepin, 200 pmol DRB, and DMSO (2 groups, final 0.1%) was added respectively and further incubated for 1 h. […] The eluted protein was analyzed with western blot. The binding affinity of cordycepin against the RUVBL2 protein was measured via SPR technology using a Biacore T200 instrument (GE Healthcare) at room temperature. […] The binding kinetics and binding affinity of cordycepin against the RUVBL2 protein were determined with BIA evaluation software (GE healthcare). […] Immunoprecipitated protein complex was then washed 3 times with IP lysis buffer, boiled and analyzed with western blot. […]

Assay [6] concerns the target Ruvbl2 (Homo sapiens, UniProt Q9Y230). The assay can be described thus: Biotinylated compounds pull-down in U2OS cell lysate, RUVBL2. The following applies: competed by biotin free compound. The class given is binding. More on the design: Every 10^8 unsynchronized U2OS cells were collected, homogenized into 2 ml lysis buffer; endogenous in cells; host or cells: U2OS. Here is the method: as §1

T1 sequence (P50750 whole entry): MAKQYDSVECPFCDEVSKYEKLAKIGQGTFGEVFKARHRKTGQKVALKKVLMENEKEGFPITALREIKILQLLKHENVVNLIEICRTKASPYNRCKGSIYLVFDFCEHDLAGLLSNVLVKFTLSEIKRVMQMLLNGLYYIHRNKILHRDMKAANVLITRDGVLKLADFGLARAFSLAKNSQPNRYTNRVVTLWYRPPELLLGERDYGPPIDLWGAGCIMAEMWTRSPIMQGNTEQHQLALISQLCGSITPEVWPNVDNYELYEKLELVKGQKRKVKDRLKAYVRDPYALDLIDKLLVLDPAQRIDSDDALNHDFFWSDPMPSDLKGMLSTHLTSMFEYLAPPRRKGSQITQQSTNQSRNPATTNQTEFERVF
T1 sequence (O60563 whole entry partner): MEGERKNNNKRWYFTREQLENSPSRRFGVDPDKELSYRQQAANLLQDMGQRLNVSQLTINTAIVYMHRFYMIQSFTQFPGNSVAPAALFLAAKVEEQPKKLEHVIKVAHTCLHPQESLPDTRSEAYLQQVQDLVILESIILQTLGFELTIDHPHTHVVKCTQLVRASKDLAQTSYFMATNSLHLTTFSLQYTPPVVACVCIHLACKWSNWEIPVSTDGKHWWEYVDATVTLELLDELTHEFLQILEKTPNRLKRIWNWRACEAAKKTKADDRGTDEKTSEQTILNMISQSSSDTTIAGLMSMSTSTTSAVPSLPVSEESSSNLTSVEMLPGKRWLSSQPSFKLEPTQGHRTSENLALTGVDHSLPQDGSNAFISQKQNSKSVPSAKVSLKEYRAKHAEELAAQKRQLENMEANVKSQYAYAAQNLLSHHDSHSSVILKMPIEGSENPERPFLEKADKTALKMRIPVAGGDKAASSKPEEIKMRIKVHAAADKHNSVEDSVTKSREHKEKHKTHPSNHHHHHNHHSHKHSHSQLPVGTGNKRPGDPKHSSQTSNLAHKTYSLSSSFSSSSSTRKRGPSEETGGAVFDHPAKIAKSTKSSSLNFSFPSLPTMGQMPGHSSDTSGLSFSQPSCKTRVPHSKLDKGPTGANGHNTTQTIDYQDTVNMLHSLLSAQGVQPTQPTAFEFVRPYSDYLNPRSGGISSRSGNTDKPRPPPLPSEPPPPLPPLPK
Chain of Ruvbl2 (Q9Y230 whole entry): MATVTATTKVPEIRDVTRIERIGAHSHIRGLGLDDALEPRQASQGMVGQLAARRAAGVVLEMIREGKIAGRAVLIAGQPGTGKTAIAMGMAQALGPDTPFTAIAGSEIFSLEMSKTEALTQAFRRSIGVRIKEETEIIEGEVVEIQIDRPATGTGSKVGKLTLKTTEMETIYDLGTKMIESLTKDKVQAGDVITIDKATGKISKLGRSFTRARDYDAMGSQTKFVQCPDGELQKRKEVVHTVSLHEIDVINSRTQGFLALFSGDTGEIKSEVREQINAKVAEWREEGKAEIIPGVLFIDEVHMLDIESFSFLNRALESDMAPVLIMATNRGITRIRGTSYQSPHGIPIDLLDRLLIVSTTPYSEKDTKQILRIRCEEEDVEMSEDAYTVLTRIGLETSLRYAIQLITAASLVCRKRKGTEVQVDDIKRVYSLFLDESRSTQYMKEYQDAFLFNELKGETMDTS

For the compound `OC[C@H]1O[C@@H](n2cnc3cc(Cl)c(Cl)cc32)[C@H](O)[C@@H]1O` [DRB, 5,6-dichloro-1-β-D-ribobenzimidazole], the “clock phase of SCN slice” value in assay [1] was “shift the phase”. For the same compound, the “clock phase of kidney” value in assay [2] is listed as “shift the phase”. Also, in assay [3], the “binding of BMAL1 at PER2 locus” value is listed as “remained unchanged” and the “binding of CRY2/RUVBL2 at PER2 locus” value is given as “released”. Further, in assay [4] (1, 2, 4 h post administration), the “nascent transcription of E-box genes” value is on record as “all up-regulated”. For the same compound, the “newly synthesized mRNA of the majority of genes” value in assay [4] (within the first hour) is listed as “reduced”.

In the case of `O=C1N[C@H]2[C@H](CS[C@H]2CCCCC(=O)OC[C@H]2O[C@@H](n3cnc4cc(Cl)c(Cl)cc43)[C@H](O)[C@@H]2O)N1` [biotin-DRB, 5,6-dichloro-1-(5′-O-biotinyl-β-D-ribofuranosyl)-benzimidazole], the “pull-down of CDK9” value in assay [5] is “successfully isolated”. Besides, in assay [6], the “pull-down of Ruvbl2” value is given as “can pull-down”.
